Measurements as given in the NIST ThermoML archive (doi:10.1016/j.jct.2007.07.005).
± gives the expanded uncertainty stated by the source.

Experiment: xn = mol fraction of the nth substance listed
Details: Fluid (supercritical or subcritical phases), vibrating tube

Question: For `CCCCCO` [pentan-1-ol] + O=C=O, which mass density (362.59 K, 3010 kPa, x2 = 0) is on record?
Answer: 762.29 ± 0.43 kg/m3

Question: And the mass density (362.59 K, 3998 kPa, x2 = 0)?
Answer: 763.28 ± 0.43 kg/m3

Question: And the mass density (362.59 K, 5006 kPa, x2 = 0)?
Answer: 764.25 ± 0.43 kg/m3

Question: And the mass density (362.59 K, 6013 kPa, x2 = 0)?
Answer: 765.23 ± 0.43 kg/m3

Question: And the mass density (362.59 K, 7014 kPa, x2 = 0)?
Answer: 766.21 ± 0.44 kg/m3

Question: And the mass density (362.59 K, 8007 kPa, x2 = 0)?
Answer: 767.16 ± 0.44 kg/m3

Question: And the mass density (362.59 K, 9020 kPa, x2 = 0)?
Answer: 768.1 ± 0.44 kg/m3

Question: What about the mass density (362.59 K, 10006 kPa, x2 = 0) of the same compound?
Answer: 769.02 ± 0.44 kg/m3

Question: What about the mass density (362.59 K, 10991 kPa, x2 = 0) of the same compound?
Answer: 769.93 ± 0.44 kg/m3

Question: What about the mass density (362.59 K, 12025 kPa, x2 = 0) of the same compound?
Answer: 770.87 ± 0.44 kg/m3

Question: And the mass density (362.59 K, 13008 kPa, x2 = 0)?
Answer: 771.76 ± 0.44 kg/m3

Question: And the mass density (362.59 K, 13998 kPa, x2 = 0)?
Answer: 772.62 ± 0.44 kg/m3

Question: And the mass density (362.59 K, 15017 kPa, x2 = 0)?
Answer: 773.51 ± 0.44 kg/m3

Question: What about the mass density (362.59 K, 16000 kPa, x2 = 0) of the same compound?
Answer: 774.37 ± 0.44 kg/m3

Question: And the mass density (362.59 K, 17013 kPa, x2 = 0)?
Answer: 775.24 ± 0.44 kg/m3

Question: And the mass density (362.59 K, 18032 kPa, x2 = 0)?
Answer: 776.11 ± 0.44 kg/m3

Question: And the mass density (362.59 K, 19003 kPa, x2 = 0)?
Answer: 776.9 ± 0.44 kg/m3

Question: And the mass density (362.59 K, 20030 kPa, x2 = 0)?
Answer: 777.77 ± 0.45 kg/m3

Question: What about the mass density (362.59 K, 20987 kPa, x2 = 0) of the same compound?
Answer: 778.55 ± 0.45 kg/m3

Question: What about the mass density (362.59 K, 22033 kPa, x2 = 0) of the same compound?
Answer: 779.4 ± 0.45 kg/m3

Question: What about the mass density (362.59 K, 23000 kPa, x2 = 0) of the same compound?
Answer: 780.2 ± 0.45 kg/m3

Question: And the mass density (362.59 K, 24031 kPa, x2 = 0)?
Answer: 781.02 ± 0.45 kg/m3

Question: And the mass density (362.59 K, 25026 kPa, x2 = 0)?
Answer: 781.82 ± 0.45 kg/m3

Question: What about the mass density (362.64 K, 10025 kPa, x2 = 0.3624) of the same compound?
Answer: 777.81 ± 0.44 kg/m3

Question: What about the mass density (362.64 K, 11003 kPa, x2 = 0.3624) of the same compound?
Answer: 779.19 ± 0.44 kg/m3

Question: What about the mass density (362.64 K, 12003 kPa, x2 = 0.3624) of the same compound?
Answer: 780.55 ± 0.44 kg/m3

Question: What about the mass density (362.64 K, 12022 kPa, x2 = 0.4651) of the same compound?
Answer: 773.96 ± 0.44 kg/m3

Question: And the mass density (362.64 K, 13017 kPa, x2 = 0.3624)?
Answer: 781.9 ± 0.44 kg/m3

Question: What about the mass density (362.64 K, 13060 kPa, x2 = 0.4651) of the same compound?
Answer: 776.14 ± 0.44 kg/m3

Question: What about the mass density (362.64 K, 14013 kPa, x2 = 0.3624) of the same compound?
Answer: 783.21 ± 0.44 kg/m3

Question: And the mass density (362.64 K, 14031 kPa, x2 = 0.4651)?
Answer: 778.14 ± 0.44 kg/m3

Question: What about the mass density (362.64 K, 15047 kPa, x2 = 0.4651) of the same compound?
Answer: 780.2 ± 0.44 kg/m3

Question: And the mass density (362.64 K, 15050 kPa, x2 = 0.3624)?
Answer: 784.56 ± 0.44 kg/m3

Question: What about the mass density (362.64 K, 16009 kPa, x2 = 0.3624) of the same compound?
Answer: 785.79 ± 0.44 kg/m3

Question: And the mass density (362.64 K, 16038 kPa, x2 = 0.4651)?
Answer: 782.15 ± 0.44 kg/m3

Question: And the mass density (362.64 K, 17020 kPa, x2 = 0.4651)?
Answer: 784.05 ± 0.45 kg/m3

Question: And the mass density (362.64 K, 17038 kPa, x2 = 0.3624)?
Answer: 787.08 ± 0.44 kg/m3

Question: What about the mass density (362.64 K, 17996 kPa, x2 = 0.3624) of the same compound?
Answer: 788.26 ± 0.45 kg/m3

Question: And the mass density (362.64 K, 18020 kPa, x2 = 0.4651)?
Answer: 785.95 ± 0.45 kg/m3

Question: And the mass density (362.64 K, 19025 kPa, x2 = 0.3624)?
Answer: 789.49 ± 0.45 kg/m3

Question: What about the mass density (362.64 K, 19043 kPa, x2 = 0.4651) of the same compound?
Answer: 787.85 ± 0.45 kg/m3

Question: And the mass density (362.64 K, 20005 kPa, x2 = 0.3624)?
Answer: 790.66 ± 0.45 kg/m3

Question: And the mass density (362.64 K, 20038 kPa, x2 = 0.4651)?
Answer: 789.76 ± 0.45 kg/m3

Question: And the mass density (362.64 K, 21006 kPa, x2 = 0.3624)?
Answer: 791.85 ± 0.45 kg/m3

Question: What about the mass density (362.64 K, 21016 kPa, x2 = 0.4651) of the same compound?
Answer: 791.43 ± 0.45 kg/m3

Question: And the mass density (362.64 K, 22040 kPa, x2 = 0.3624)?
Answer: 793.05 ± 0.45 kg/m3

Question: And the mass density (362.64 K, 22046 kPa, x2 = 0.4651)?
Answer: 793.2 ± 0.45 kg/m3

Question: What about the mass density (362.64 K, 22994 kPa, x2 = 0.3624) of the same compound?
Answer: 794.14 ± 0.45 kg/m3

Question: And the mass density (362.64 K, 23026 kPa, x2 = 0.4651)?
Answer: 794.9 ± 0.45 kg/m3

Question: What about the mass density (362.64 K, 24043 kPa, x2 = 0.3624) of the same compound?
Answer: 795.34 ± 0.45 kg/m3

Question: And the mass density (362.64 K, 24056 kPa, x2 = 0.4651)?
Answer: 796.64 ± 0.45 kg/m3

Question: What about the mass density (362.64 K, 25004 kPa, x2 = 0.3624) of the same compound?
Answer: 796.42 ± 0.45 kg/m3

Question: And the mass density (362.66 K, 3020 kPa, x2 = 0.0816)?
Answer: 763.81 ± 0.43 kg/m3

Question: What about the mass density (362.66 K, 3996 kPa, x2 = 0.0816) of the same compound?
Answer: 764.91 ± 0.43 kg/m3

Question: And the mass density (362.66 K, 4993 kPa, x2 = 0.0816)?
Answer: 765.97 ± 0.43 kg/m3

Question: What about the mass density (362.66 K, 6014 kPa, x2 = 0.0816) of the same compound?
Answer: 767.08 ± 0.43 kg/m3

Question: What about the mass density (362.66 K, 7003 kPa, x2 = 0.0816) of the same compound?
Answer: 768.13 ± 0.44 kg/m3

Question: What about the mass density (362.66 K, 8000 kPa, x2 = 0.0816) of the same compound?
Answer: 769.18 ± 0.44 kg/m3

Question: And the mass density (362.66 K, 9015 kPa, x2 = 0.0816)?
Answer: 770.22 ± 0.44 kg/m3

Question: And the mass density (362.66 K, 10003 kPa, x2 = 0.0816)?
Answer: 771.21 ± 0.44 kg/m3

Question: What about the mass density (362.66 K, 11015 kPa, x2 = 0.0816) of the same compound?
Answer: 772.24 ± 0.44 kg/m3

Question: What about the mass density (362.66 K, 12001 kPa, x2 = 0.0816) of the same compound?
Answer: 773.21 ± 0.44 kg/m3
